# According to patent US6491894B1, “NGR receptor and methods of identifying tumor homing molecules that home to angiogenic vasculature using same” (The Burnham Institute, priority 1998, dated 2002):
# Where no end group is shown, it is not given here.
# Legend:
# [1] = target: T1, CD13/APN (Homo sapiens, UniProt P15144); assay: Affinity chromatography of cell extracts on immobilized peptide; type: binding
# T1 construct: Experiments were performed using HL-60 cell extracts because they are known to express CD13/APN; endogenous in cells; host or cells: HL-60 cells (extract)
# T1 sequence (P15144 whole entry): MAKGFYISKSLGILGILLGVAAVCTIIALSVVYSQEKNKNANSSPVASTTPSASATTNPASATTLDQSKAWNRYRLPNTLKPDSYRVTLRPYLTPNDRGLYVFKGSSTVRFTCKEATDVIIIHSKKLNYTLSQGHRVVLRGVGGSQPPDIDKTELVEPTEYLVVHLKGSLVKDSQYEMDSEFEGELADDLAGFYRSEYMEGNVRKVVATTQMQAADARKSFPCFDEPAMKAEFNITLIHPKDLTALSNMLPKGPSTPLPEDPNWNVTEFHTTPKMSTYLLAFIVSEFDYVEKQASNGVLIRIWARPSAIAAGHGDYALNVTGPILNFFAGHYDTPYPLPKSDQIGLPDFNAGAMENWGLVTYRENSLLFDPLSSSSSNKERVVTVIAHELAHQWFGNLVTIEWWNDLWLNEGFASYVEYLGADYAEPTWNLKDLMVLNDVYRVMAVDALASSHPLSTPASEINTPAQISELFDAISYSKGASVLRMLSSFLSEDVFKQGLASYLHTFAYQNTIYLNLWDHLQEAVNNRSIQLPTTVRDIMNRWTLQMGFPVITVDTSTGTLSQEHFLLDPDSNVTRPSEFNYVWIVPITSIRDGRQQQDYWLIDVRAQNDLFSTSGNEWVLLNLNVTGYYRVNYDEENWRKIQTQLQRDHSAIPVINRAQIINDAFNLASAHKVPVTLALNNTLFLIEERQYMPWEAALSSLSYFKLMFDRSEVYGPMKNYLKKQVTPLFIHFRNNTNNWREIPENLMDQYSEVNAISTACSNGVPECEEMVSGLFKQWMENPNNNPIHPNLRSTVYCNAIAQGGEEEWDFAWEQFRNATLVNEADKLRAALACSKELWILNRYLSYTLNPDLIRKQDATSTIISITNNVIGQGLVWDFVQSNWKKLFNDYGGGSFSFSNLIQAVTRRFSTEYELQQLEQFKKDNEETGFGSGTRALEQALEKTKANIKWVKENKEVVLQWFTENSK
# Experimental: To further characterize the interaction of CD13/APN with the NGR peptide, affinity chromatography on the CNGRC peptide was performed. The column was prepared by coupling the CNGRC peptide to SEPHAROSE (Pharmacia; Piscataway N.J.). Elution was effected with soluble CNGRC peptide. […] Extracts of Molt-4 and MDA-MB-435 cells transfected with CD13/APN were also characterized by using affinity chromatography, with extracts of the mock transfected counterparts used as negative controls.
# The fractions were also analyzed for CD13 enzymatic activity using AlapNA as the substrate.
# [2] = target: T2, CD13 (Gallus gallus, UniProt O57579); assay: bFGF-induced angiogenesis in chicken chorioallantoic membrane (CAM); type: in vivo; settings: topical, 3 days
# T2 construct: CD13 is expressed in CAM angiogenic vasculature; from tissue; host or cells: chorioallantoic membrane of 10-day chicken embryos
# T2 sequence (O57579 1-972): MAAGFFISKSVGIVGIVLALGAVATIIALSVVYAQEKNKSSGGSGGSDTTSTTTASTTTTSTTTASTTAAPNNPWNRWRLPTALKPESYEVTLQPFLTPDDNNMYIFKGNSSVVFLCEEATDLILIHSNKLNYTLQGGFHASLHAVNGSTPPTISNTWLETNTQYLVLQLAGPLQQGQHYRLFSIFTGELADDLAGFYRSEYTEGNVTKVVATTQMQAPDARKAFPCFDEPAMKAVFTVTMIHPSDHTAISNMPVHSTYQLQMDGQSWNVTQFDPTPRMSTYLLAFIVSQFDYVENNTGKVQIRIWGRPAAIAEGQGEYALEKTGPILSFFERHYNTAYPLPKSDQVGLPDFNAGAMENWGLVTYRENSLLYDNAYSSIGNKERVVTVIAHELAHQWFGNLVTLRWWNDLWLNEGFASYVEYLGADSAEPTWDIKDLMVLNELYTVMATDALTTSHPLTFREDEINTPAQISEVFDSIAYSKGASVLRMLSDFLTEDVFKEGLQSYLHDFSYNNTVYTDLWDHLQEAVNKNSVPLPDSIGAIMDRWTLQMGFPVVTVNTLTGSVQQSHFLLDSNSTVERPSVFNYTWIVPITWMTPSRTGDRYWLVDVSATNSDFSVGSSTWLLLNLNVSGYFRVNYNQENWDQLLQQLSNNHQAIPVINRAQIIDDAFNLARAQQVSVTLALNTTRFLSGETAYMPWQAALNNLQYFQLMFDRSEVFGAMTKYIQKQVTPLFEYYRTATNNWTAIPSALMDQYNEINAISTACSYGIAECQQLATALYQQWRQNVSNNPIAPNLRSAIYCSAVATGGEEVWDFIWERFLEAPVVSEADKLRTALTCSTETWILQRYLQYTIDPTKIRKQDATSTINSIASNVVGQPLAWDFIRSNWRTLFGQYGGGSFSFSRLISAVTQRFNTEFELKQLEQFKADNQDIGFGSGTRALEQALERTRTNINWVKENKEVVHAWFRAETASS
# Description: Various treatments were applied topically, and, after 3 days, the filters and surrounding CAMs were resected and fixed in formalin.
# Each bar represents the mean number of vessels and standard errors from 8 CAMs on each group.
# [3] = target: CD13/aminopeptidase N (Homo sapiens, UniProt P15144); settings: cited from earlier work
# Chain of CD13/aminopeptidase N (P15144 whole entry): as the sequence (P15144 whole entry) above
# [4] = test system: MDA-MB-435 breast carcinoma; assay: Tumor therapy of mice bearing MDA-MB-435 breast carcinoma; type: in vivo, mouse
# Experimental: Female 2-month old Balb c nu/nu mice (Harlan Sprague Dawley; San Diego Calif.) were used for these studies and were cared for according to the Burnham Institute animal facility guidelines. […] Tumors were allowed to grow to a size of about 1 cm^3 (about 5% of the mouse's body weight) before starting the treatment experiments, except for the toxicity experiments as discussed below.
# Weekly doxorubicin/peptide conjugate or control treatments (5 μg/mouse/week of doxorubicin-equivalent) were administered intravenously. In some experiments, as indicated, a dose of 30 μg/mouse was administered every 3 weeks. […] As an additional control, in some experiments the tumor homing peptide was mixed with doxorubicin, without linking, and the mixture was administered to tumor bearing mice.
# Mice were anesthetized with a tribromoethanol-based anesthetic mixture (AVERTIN; Papaioannou and Fox, Lab. Anim. 43:189-192 (1993)) before each treatment. Anesthetization facilitated the tail vein injections (final volume, 200 μl) and allowed precise serial three dimensional tumor size measurements. Tumor volume calculations were based on the equation for the volume of an ovaloid: V=4/3(nabc), where a, b, and c are ½ of the measured diameters in each of the three dimensions.
# Briefly, mice with size-matched tumors (˜1000 mm^3) were randomized into four treatment groups (six animals per group): vehicle only, free doxorubicin, doxorubicin-control peptide, and doxorubicin-CNGRC (SEQ ID NO:8). Mice were treated at 5 μg/mouse/week of doxorubicin-equivalent, and the difference in tumor volumes between day 1 and day 28 determined (FIG. 11A).
# [5] = test system: MDA-MB-435 human breast carcinoma cells; settings: for cell killing when agents not removed: after 24 hr
# Experimental: (SEQ ID NO:19; control) conjugate (0.1 to 10 μg/well of doxorubicin-equivalent) for either 30 min or overnight. Following incubation, the agents were removed by extensive washing with PBS, then fresh medium added and incubation was continued.
# [6] = test system: MDA-MB-435 breast carcinoma; assay: Tumor therapy of mice bearing MDA-MB-435 breast carcinoma; type: in vivo; settings: 5 μg/mouse/week doxorubicin-equivalent
# [7] = target: T1, CD13/APN; assay: Aminopeptidase enzymatic activity of immuno-isolated CD13 (Ala-pNA or Leu-pNA); type: biochemical; settings: Kaposi's sarcoma tumor cell extracts
# Experimental: Given that the NGR sequence closely resembles a reverse RGD sequence, NGR-containing phage were tested to determine whether they would bind to CD13/aminopeptidase (CD13/APN). Kaposi's sarcoma tumor cell octylglucoside extracts were used as a source of CD13/APN. Aminopeptidase enzymatic activity was measured in these extracts utilizing Ala-pNA or Leu-pNA as substrates by monitoring the absorbance of the samples at 405 nm (Look et al., supra (1989); Taylor, supra (1993); Amoscato et al., supra (1989), each of which is incorporated herein by reference).
# The CD13 antibody alone had no aminopeptidase activity.
# [8] = test system: MDA-MB-435 derived tumors; assay: In vivo targeting of phage to breast carcinoma xenografts (phage recovery); set-up: species or system mouse; inhibition of CGSLVRC phage tumor homing by soluble peptide: dose or concentration left out as unconfirmed; settings: for reduction of the amount of phage in the tumor by coinjection of free peptide: 500 μg free peptide coinjected with RGD-4C phage; for inhibition of tumor homing of CNGRCVSGCAGRC (NGR) phage by co-injected soluble peptide: breast carcinoma xenografts; for inhibition of tumor homing of RGD-4C phage by co-injected soluble peptide: increasing amounts of peptide
# Experimental: When the tumors attained a diameter of about 1 cm, phage expressing a specific RGD-containing peptide were administered to the tumor bearing mouse. Similar results to those discussed below also were obtained with nude mice bearing tumors formed by implantation of human melanoma C8161 cells or by implantation of mouse B16 melanoma cells.
# 1×10^9 phage expressing the RGD-containing peptide, RGD-4C ([…]; SEQ ID NO:1; see, Koivunen et al., supra, 1995) or control (insertless) phage were injected intravenously (iv) into the mice and allowed to circulate for 4 min. The mice then were snap frozen or perfused through the heart while under anesthesia, and various organs, including tumor, brain and kidney, were removed and the phage present in the organs was quantitated (see U.S. Pat. No. 5,622,699; Pasqualini and Ruoslahti, supra, 1996).
# Phage displaying tumor homing peptides were recovered from breast carcinoma xenografts. […] The mean number of phage recovered from the tumor or control tissue (brain) and the standard error of the mean (SEM) from triplicate platings are shown in FIG. 1.
# An insertless phage with a different selective marker (ampicillin instead of tetracycline) was co-injected with the NGR phage at the same input to assess specificity within the same tumor-bearing animal. The ratios were calculated using the number of co-injected control ampicillin-resistant phage recovered from the same tissues. The phage were quantitated from triplicate platings on tetracycline (the homing phage) or ampicillin (control phage) selective plates. Various additional control phage were injected separately into tumor-bearing mice. These controls included: fd-tet phage without insert; unselected phage library mixtures; phage selected and shown to home to other normal vascular beds; and phage displaying peptides that were unrelated to NGR. The RGD-4C ([…]; SEQ ID NO:1) phage served as a positive control.
# [9] = test system: human αv-integrins; settings: cited from earlier work
# [10] = test system: B16B15b mouse melanoma; assay: In vivo panning against a melanoma tumor; settings: 89 cloned phage recovered from B16B15b tumors, three rounds
# Experimental: Mice bearing a melanoma were produced by implantation of B16B15b mouse melanoma cells, which produce highly vascularized tumors. B16B15b mouse melanoma cells were injected subcutaneously into the mammary fat pad of nude mice (2 months old) and tumors were allowed to grow until the diameter was about 1 cm. In vivo panning was performed as disclosed above. Approximately 1×10^12 transducing units of phage expressing the CX5C (SEQ ID NO:9), CX6C (SEQ ID NO:10) or CX7C (SEQ ID NO:11) library were injected, iv, and allowed to circulate for 4 min. Mice then were snap frozen in liquid nitrogen or perfused through the heart while under anesthesia, tumor tissue and brain (control organ) were removed, and phage were isolated as described above. Three rounds of in vivo panning were performed.
# The amino acid sequences were determined for the inserts in 89 cloned phage recovered from the B16B15b tumors. The peptides expressed by these phage were represented by two predominant sequences, […] (SEQ ID NO:4; 52% of the clones sequenced) and WGTGLC (SEQ ID NO:18; 25% of the clones; see Table 2).
# [11] = Acute toxicity in mice bearing extremely large tumors; settings: 200 μg/mouse, tumors about 25% of body weight
# [12] = test system: breast tumor; assay: Viability of tumor cells obtained from tumors of treated mice; type: in vivo, mouse; settings: 30 μg equivalent iv, tumors removed five days after treatment
# Experimental: In addition, the viability of tumor cells obtained from tumors of mice treated with a tumor homing peptide/doxorubicin conjugate was compared to that of tumors from mice treated with free doxorubicin. In these experiments, breast tumor bearing mice were size matched with regard to the tumors, then treated intravenously with 30 μg equivalent of doxorubicin/RGD-4C ([…]; SEQ ID NO:1) or of free doxorubicin. Five days after treatment, the mice were euthanized and the tumors were removed. The tumor pairs were weighed and ground and the cell suspensions were plated (2 g tumor tissue per 150 mm plate).
# Cell numbers were determined at 24 hours and 7 days after plating. Viability of tumor cells from the tumors of mice receiving the doxorubicin/RGD-4C ([…]; SEQ ID NO:1) conjugate was about 3 fold less than cells from tumors of mice treated with the free doxorubicin.
# [13] = 5 μg/mouse/week doxorubicin-equivalent iv
compound,measurement,setting,value
O=c1[nH]cc(F)c(=O)[nH]1 [CARAC],CD13/APN obtained by affinity chromatography on immobilized peptide,[1],yielded no CD13/APN
same,elution of CD13/APN from the CNGRC column by soluble peptide,"[1]; Molt-4/CD13, MDA-MB-435/CD13 or HL-60 cell extracts",did not elute any activity
CCCCC[C@H](CC(=O)NO)C(=O)N[C@H](C(=O)N1CCC[C@H]1CO)C(C)C [actinonin],effect on bFGF-induced angiogenesis in CAM,[2],suppress bFGF-induced angiogenesis
same,block of cell-surface CD13/aminopeptidase N enzymatic activity,[3],potently blocked
"COc1cccc2c1C(=O)c1c(O)c3c(c(O)c1C2=O)C[C@@](O)(C(=O)CO)C[C@@H]3O[C@H]1C[C@H](N)[C@H](O)[C@H](C)O1 [doxorubicin, reference compound]",effect on tumor growth,[4]; relative to vehicle alone,essentially no effect on tumor growth
same,cell killing when agents not removed,[5],cells were killed
same,gross examination of tumors (skin ulceration and tumor necrosis),[6],no such signs were observed
c1cnc2c(c1)ccc1cccnc12 [o-phenanthroline],inhibition of aminopeptidase activity captured by CD13 antibody,[7],inhibited the activity
same,block of cell-surface CD13/aminopeptidase N enzymatic activity,[3],potently blocked
ACDCRGDCFCG,reduction of the amount of phage in the tumor by coinjection of free peptide,[8],about tenfold
CDCRGDCFC [RGD-4C],binding to αv-integrins,[9],binds to human αv-integrins
same,inhibition of tumor homing of CNGRCVSGCAGRC (NGR) phage by co-injected soluble peptide,[8],partially inhibited
same,inhibition of tumor homing of RGD-4C phage by co-injected soluble peptide,[8],readily inhibited
same,"potency in inhibiting NGR phage tumor homing, less potent than the CNGRC peptide","[8]; mouse, in vivo",5-10 times
CGSLVRC,inhibition of CGSLVRC phage tumor homing by soluble peptide,[8],inhibition of tumor homing
CLSGSLSC,share of the clones sequenced,[10],52%
"GACVFSIAHECGA (not fully specified (bridges); also: cyclic, ring type not given here) [unrelated cyclic control peptide, reference compound]",inhibition of tumor homing of CNGRCVSGCAGRC (NGR) phage by co-injected soluble peptide,[8],had no effect
same,inhibition of tumor homing of RGD-4C phage by co-injected soluble peptide,[8],had no effect
GRGESP [reference compound],reduction of the amount of phage in the tumor by coinjection of free peptide,[8],essentially had no effect
WGTGLC,share of the clones sequenced,[10],25%
doxorubicin/RGD-4C: doxorubicin conjugated to peptide CDCRGDCFC (SEQ ID NO:1) (cysteine pairing not given here; also: doxorubicin conjugate),survival after acute dose,[11],survived for longer than one week
same,"viability of tumor cells, less than cells from tumors of mice treated with free doxorubicin",[12],about 3 fold
same,pulmonary metastasis,[4]; [13],a lower incidence of pulmonary metastasis and fewer metastatic lesions
same,spread to regional lymph nodes,[4]; [13],less spread to regional lymph nodes
same,survival,[4]; [13],survived beyond the time when the doxorubicin control and conjugate control mice had died
same,tumor size versus doxorubicin control,[4]; [13],significantly smaller tumors
same,time alive after control mice had died,"[4]; dose escalation, 30 μg/mouse every three weeks for three cycles",more than 6 months
same,histopathological analysis of tumor vasculature,"[4]; mouse, in vivo",pronounced destruction of the vasculature
same,cell death after 30 min exposure,"[5]; 0.1 to 10 μg/well doxorubicin-equivalent, agents removed after 30 min, survival at 24 hours",cell death was present
same,cell killing when agents not removed,[5],cells were killed
same,gross examination of tumors (skin ulceration and tumor necrosis),[6],marked skin ulceration and tumor necrosis
